Tests used:
Abutilon theophrasti = experiment: Post-emergence herbicidal activity test (stem and leaf spray, pot culture); format: in vivo; settings: 3 weeks after spraying
Summary of the method: (§1)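 Foliar spray, 2–3-leaf stage, 10/5/2.5 g/mu; acetone/Tween 80 + methyl oleate 1.5 L/ha. Greenhouse 3 wk, 20–30 °C. Score: fresh-wt control, grade 5 ≥85% … grade 0 <5%.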

Amaranthus retroflexus = experiment: as above; format: in vivo; settings: 3 weeks after spraying
Summary of the method: as §1

Echinochloa crusgalli = experiment: as above; format: in vivo; settings: 3 weeks after spraying
Summary of the method: as §1

Portulaca oleracea = experiment: as above; format: in vivo; settings: 3 weeks after spraying
Summary of the method: as §1

Setaria viridis = experiment: as above; format: in vivo; settings: 3 weeks after spraying
Summary of the method: as §1

Trifoliumre pensL. = experiment: Post-emergence herbicidal activity test (stem and leaf spray, pot culture); format: in vivo; settings: 3 weeks after spraying
Summary of the method: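 Rates of 10, 5 and 2.5 g/mu were applied in a single spray-tower treatment to 2–3-leaf plants, thinned to 10 per pot. Formulation: acetone solution, Tween 80, 1.5 L/ha methyl oleate synergist. Weed response assessed after 3 further greenhouse weeks; mean of three experiments.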

O=C(COc1cc(N2C(=O)C3=C(CCCC3)C2=O)c(F)cc1Cl)c1ccc(F)cc1 [Compound C8, 2-(4-chloro-2-fluoro-5-(2-oxo-2-(4-fluorophenyl)ethoxy)phenyl)-4,5,6,7-tetrahydro-1H-isoindole-1,3(2H)-dione]
Post-emergence herbicidal activity, A. theophrasti (grade) (Abutilon theophrasti; dosage 2.5 g/mu): 5 (Grade 5: the growth control rate is greater than or equal to 85%) | Post-emergence herbicidal activity, A. theophrasti (grade) (Abutilon theophrasti; dosage 5 g/mu): 5 (Grade 5: the growth control rate is greater than or equal to 85%) | Post-emergence herbicidal activity, A. theophrasti (grade) (Abutilon theophrasti; dosage 10 g/mu): 5 (Grade 5: the growth control rate is greater than or equal to 85%) | Post-emergence herbicidal activity, A. retroflexus (grade) (Amaranthus retroflexus; dosage 2.5 g/mu): 5 (Grade 5: the growth control rate is greater than or equal to 85%) | Post-emergence herbicidal activity, A. retroflexus (grade) (Amaranthus retroflexus; dosage 5 g/mu): 5 (Grade 5: the growth control rate is greater than or equal to 85%) | Post-emergence herbicidal activity, A. retroflexus (grade) (Amaranthus retroflexus; dosage 10 g/mu): 5 (Grade 5: the growth control rate is greater than or equal to 85%) | Post-emergence herbicidal activity, E. crusgalli (grade) (Echinochloa crusgalli; dosage 2.5 g/mu): 1 (Grade 1: the growth control rate is greater than or equal to 5% and less than 20%) | Post-emergence herbicidal activity, E. crusgalli (grade) (Echinochloa crusgalli; dosage 5 g/mu): 2 (Grade 2: the growth control rate is greater than or equal to 20% and less than 40%) | Post-emergence herbicidal activity, E. crusgalli (grade) (Echinochloa crusgalli; dosage 10 g/mu): 3 (Grade 3: the growth control rate is greater than or equal to 40% and less than 60%) | Post-emergence herbicidal activity, P. oleracea (grade) (Portulaca oleracea; dosage 2.5 g/mu): 5 (Grade 5: the growth control rate is greater than or equal to 85%) | Post-emergence herbicidal activity, P. oleracea (grade) (Portulaca oleracea; dosage 5 g/mu): 5 (Grade 5: the growth control rate is greater than or equal to 85%) | Post-emergence herbicidal activity, P. oleracea (grade) (Portulaca oleracea; dosage 10 g/mu): 5 (Grade 5: the growth control rate is greater than or equal to 85%) | Post-emergence herbicidal activity, S. viridis (grade) (Setaria viridis; dosage 2.5 g/mu): 2 (Grade 2: the growth control rate is greater than or equal to 20% and less than 40%) | Post-emergence herbicidal activity, S. viridis (grade) (Setaria viridis; dosage 5 g/mu): 3 (Grade 3: the growth control rate is greater than or equal to 40% and less than 60%) | Post-emergence herbicidal activity, S. viridis (grade) (Setaria viridis; dosage 10 g/mu): 4 (Grade 4: the growth control rate is greater than or equal to 60% and less than 85%) | melting point: 126 to 128 °C | Post-emergence herbicidal activity, Trifoliumre pensL. (grade) (Trifoliumre pensL.; dosage 2.5 g/mu): 5 (Grade 5: the growth control rate is greater than or equal to 85%) | Post-emergence herbicidal activity, Trifoliumre pensL. (grade) (Trifoliumre pensL.; dosage 5 g/mu): 5 (Grade 5: the growth control rate is greater than or equal to 85%) | Post-emergence herbicidal activity, Trifoliumre pensL. (grade) (Trifoliumre pensL.; dosage 10 g/mu): 5 (Grade 5: the growth control rate is greater than or equal to 85%)

O=C(COC(=O)c1cc(N2C(=O)C3=C(CCCC3)C2=O)c(F)cc1Cl)c1ccc(Cl)cc1 [Compound E1, 2-(4-chlorophenyl)-2-oxoethyl-2-chloro-5-(1,3-dioxo-1,3,4,5,6,7-hexahydro-2H-isoindole-2-yl)-4-fluorobenzoate]
Post-emergence herbicidal activity, A. theophrasti (grade) (Abutilon theophrasti; dosage 10 g/mu): 5 (Grade 5: the growth control rate is greater than or equal to 85%) | Post-emergence herbicidal activity, A. retroflexus (grade) (Amaranthus retroflexus; dosage 10 g/mu): 5 (Grade 5: the growth control rate is greater than or equal to 85%) | Post-emergence herbicidal activity, E. crusgalli (grade) (Echinochloa crusgalli; dosage 10 g/mu): 3 (Grade 3: the growth control rate is greater than or equal to 40% and less than 60%) | Post-emergence herbicidal activity, P. oleracea (grade) (Portulaca oleracea; dosage 10 g/mu): 5 (Grade 5: the growth control rate is greater than or equal to 85%) | Post-emergence herbicidal activity, S. viridis (grade) (Setaria viridis; dosage 10 g/mu): 4 (Grade 4: the growth control rate is greater than or equal to 60% and less than 85%) | melting point: 138 to 141 °C | Post-emergence herbicidal activity, Trifoliumre pensL. (grade) (Trifoliumre pensL.; dosage 10 g/mu): 5 (Grade 5: the growth control rate is greater than or equal to 85%)

O=C(COc1cc(N2C(=O)C3=C(CCCC3)C2=O)c(F)cc1Cl)c1ccc(Cl)cc1 [Compound C11, 2-(4-chloro-2-fluoro-5-(2-oxo-2-(4-chlorophenyl)ethoxy)phenyl)-4,5,6,7-tetrahydro-1H-isoindole-1,3(2H)-dione]
Post-emergence herbicidal activity, A. theophrasti (grade) (Abutilon theophrasti; dosage 2.5 g/mu): 5 (Grade 5: the growth control rate is greater than or equal to 85%) | Post-emergence herbicidal activity, A. theophrasti (grade) (Abutilon theophrasti; dosage 5 g/mu): 5 (Grade 5: the growth control rate is greater than or equal to 85%) | Post-emergence herbicidal activity, A. theophrasti (grade) (Abutilon theophrasti; dosage 10 g/mu): 5 (Grade 5: the growth control rate is greater than or equal to 85%) | Post-emergence herbicidal activity, A. retroflexus (grade) (Amaranthus retroflexus; dosage 2.5 g/mu): 5 (Grade 5: the growth control rate is greater than or equal to 85%) | Post-emergence herbicidal activity, A. retroflexus (grade) (Amaranthus retroflexus; dosage 5 g/mu): 5 (Grade 5: the growth control rate is greater than or equal to 85%) | Post-emergence herbicidal activity, A. retroflexus (grade) (Amaranthus retroflexus; dosage 10 g/mu): 5 (Grade 5: the growth control rate is greater than or equal to 85%) | Post-emergence herbicidal activity, E. crusgalli (grade) (Echinochloa crusgalli; dosage 2.5 g/mu): 1 (Grade 1: the growth control rate is greater than or equal to 5% and less than 20%) | Post-emergence herbicidal activity, E. crusgalli (grade) (Echinochloa crusgalli; dosage 5 g/mu): 2 (Grade 2: the growth control rate is greater than or equal to 20% and less than 40%) | Post-emergence herbicidal activity, E. crusgalli (grade) (Echinochloa crusgalli; dosage 10 g/mu): 3 (Grade 3: the growth control rate is greater than or equal to 40% and less than 60%) | Post-emergence herbicidal activity, P. oleracea (grade) (Portulaca oleracea; dosage 2.5 g/mu): 5 (Grade 5: the growth control rate is greater than or equal to 85%) | Post-emergence herbicidal activity, P. oleracea (grade) (Portulaca oleracea; dosage 5 g/mu): 5 (Grade 5: the growth control rate is greater than or equal to 85%) | Post-emergence herbicidal activity, P. oleracea (grade) (Portulaca oleracea; dosage 10 g/mu): 5 (Grade 5: the growth control rate is greater than or equal to 85%) | Post-emergence herbicidal activity, S. viridis (grade) (Setaria viridis; dosage 2.5 g/mu): 2 (Grade 2: the growth control rate is greater than or equal to 20% and less than 40%) | Post-emergence herbicidal activity, S. viridis (grade) (Setaria viridis; dosage 5 g/mu): 3 (Grade 3: the growth control rate is greater than or equal to 40% and less than 60%) | Post-emergence herbicidal activity, S. viridis (grade) (Setaria viridis; dosage 10 g/mu): 4 (Grade 4: the growth control rate is greater than or equal to 60% and less than 85%) | melting point: 148 to 150 °C | Post-emergence herbicidal activity, Trifoliumre pensL. (grade) (Trifoliumre pensL.; dosage 2.5 g/mu): 5 (Grade 5: the growth control rate is greater than or equal to 85%) | Post-emergence herbicidal activity, Trifoliumre pensL. (grade) (Trifoliumre pensL.; dosage 5 g/mu): 5 (Grade 5: the growth control rate is greater than or equal to 85%) | Post-emergence herbicidal activity, Trifoliumre pensL. (grade) (Trifoliumre pensL.; dosage 10 g/mu): 5 (Grade 5: the growth control rate is greater than or equal to 85%)

O=C(COc1cc(N2C(=O)C3=C(CCCC3)C2=O)c(F)cc1Cl)c1ccc(Br)cc1 [Compound C14, 2-(4-chloro-2-fluoro-5-(2-oxo-2-(4-bromophenyl)ethoxy)phenyl)-4,5,6,7-tetrahydro-1H-isoindole-1,3(2H)-dione]
Post-emergence herbicidal activity, A. theophrasti (grade) (Abutilon theophrasti; dosage 2.5 g/mu): 5 (Grade 5: the growth control rate is greater than or equal to 85%) | Post-emergence herbicidal activity, A. theophrasti (grade) (Abutilon theophrasti; dosage 5 g/mu): 5 (Grade 5: the growth control rate is greater than or equal to 85%) | Post-emergence herbicidal activity, A. theophrasti (grade) (Abutilon theophrasti; dosage 10 g/mu): 5 (Grade 5: the growth control rate is greater than or equal to 85%) | Post-emergence herbicidal activity, A. retroflexus (grade) (Amaranthus retroflexus; dosage 2.5 g/mu): 5 (Grade 5: the growth control rate is greater than or equal to 85%) | Post-emergence herbicidal activity, A. retroflexus (grade) (Amaranthus retroflexus; dosage 5 g/mu): 5 (Grade 5: the growth control rate is greater than or equal to 85%) | Post-emergence herbicidal activity, A. retroflexus (grade) (Amaranthus retroflexus; dosage 10 g/mu): 5 (Grade 5: the growth control rate is greater than or equal to 85%) | Post-emergence herbicidal activity, E. crusgalli (grade) (Echinochloa crusgalli; dosage 2.5 g/mu): 1 (Grade 1: the growth control rate is greater than or equal to 5% and less than 20%) | Post-emergence herbicidal activity, E. crusgalli (grade) (Echinochloa crusgalli; dosage 5 g/mu): 2 (Grade 2: the growth control rate is greater than or equal to 20% and less than 40%) | Post-emergence herbicidal activity, E. crusgalli (grade) (Echinochloa crusgalli; dosage 10 g/mu): 3 (Grade 3: the growth control rate is greater than or equal to 40% and less than 60%) | Post-emergence herbicidal activity, P. oleracea (grade) (Portulaca oleracea; dosage 2.5 g/mu): 5 (Grade 5: the growth control rate is greater than or equal to 85%) | Post-emergence herbicidal activity, P. oleracea (grade) (Portulaca oleracea; dosage 5 g/mu): 5 (Grade 5: the growth control rate is greater than or equal to 85%) | Post-emergence herbicidal activity, P. oleracea (grade) (Portulaca oleracea; dosage 10 g/mu): 5 (Grade 5: the growth control rate is greater than or equal to 85%) | Post-emergence herbicidal activity, S. viridis (grade) (Setaria viridis; dosage 2.5 g/mu): 2 (Grade 2: the growth control rate is greater than or equal to 20% and less than 40%) | Post-emergence herbicidal activity, S. viridis (grade) (Setaria viridis; dosage 5 g/mu): 3 (Grade 3: the growth control rate is greater than or equal to 40% and less than 60%) | Post-emergence herbicidal activity, S. viridis (grade) (Setaria viridis; dosage 10 g/mu): 4 (Grade 4: the growth control rate is greater than or equal to 60% and less than 85%) | melting point: 183 to 185 °C | Post-emergence herbicidal activity, Trifoliumre pensL. (grade) (Trifoliumre pensL.; dosage 2.5 g/mu): 5 (Grade 5: the growth control rate is greater than or equal to 85%) | Post-emergence herbicidal activity, Trifoliumre pensL. (grade) (Trifoliumre pensL.; dosage 5 g/mu): 5 (Grade 5: the growth control rate is greater than or equal to 85%) | Post-emergence herbicidal activity, Trifoliumre pensL. (grade) (Trifoliumre pensL.; dosage 10 g/mu): 5 (Grade 5: the growth control rate is greater than or equal to 85%)
